Measured values reported in PubChem BioAssay (NCI).
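96-well plates; 48 h exposure; 5 concentrations. Endpoints by linear interpolation between flanking doses. Not reached: highest tested concentration assigned. GI50 marks 50% less growth. TGI marks complete inhibition of growth.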

How the values were obtained:
Test in all cases: NCI anticancer screen, dose series, 48 h
HCT-15 colon = system: HCT-15 colon
HOP-62 NSCLC = system: HOP-62 NSCLC
MALME-3M melanoma = system: MALME-3M melanoma
SF-539 CNS = system: SF-539 CNS
SK-MEL-5 melanoma = system: SK-MEL-5 melanoma
UACC-257 melanoma = system: UACC-257 melanoma
HCC-2998 colon = system: HCC-2998 colon
SN12C renal = system: SN12C renal
A549 NSCLC = system: A549 NSCLC
UACC-62 melanoma = system: UACC-62 melanoma
HL-60(TB) leukemia = system: HL-60(TB) leukemia
SK-MEL-2 melanoma = system: SK-MEL-2 melanoma
RXF 393 renal = system: RXF 393 renal
MCF7 breast = system: MCF7 breast
HT29 colon = system: HT29 colon
CAKI-1 renal = system: CAKI-1 renal
KM12 colon = system: KM12 colon
786-0 renal = system: 786-0 renal
SNB-19 CNS = system: SNB-19 CNS
COLO 205 colon = system: COLO 205 colon
UO-31 renal = system: UO-31 renal
BT-549 breast = system: BT-549 breast
EKVX NSCLC = system: EKVX NSCLC
NCI-H226 lung = system: NCI-H226 lung
K-562 leukemia = system: K-562 leukemia
RPMI-8226 leukemia = system: RPMI-8226 leukemia
SK-MEL-28 melanoma = system: SK-MEL-28 melanoma
SK-OV-3 ovarian = system: SK-OV-3 ovarian
TK-10 renal = system: TK-10 renal
LOX IMVI melanoma = system: LOX IMVI melanoma
NCI-H460 lung = system: NCI-H460 lung
SNB-75 CNS = system: SNB-75 CNS
OVCAR-4 ovarian = system: OVCAR-4 ovarian
OVCAR-3 ovarian = system: OVCAR-3 ovarian
NCI/ADR-RES ovarian = system: NCI/ADR-RES ovarian
PC-3 prostate = system: PC-3 prostate
SF-268 CNS = system: SF-268 CNS
NCI-H23 lung = system: NCI-H23 lung
SR leukemia = system: SR leukemia
MDA-MB-435 = system: MDA-MB-435
MOLT-4 leukemia = system: MOLT-4 leukemia
U251 CNS = system: U251 CNS
SF-295 CNS = system: SF-295 CNS
MDA-MB-231 breast = system: MDA-MB-231 breast
NCI-H522 lung = system: NCI-H522 lung
SW-620 colon = system: SW-620 colon
T-47D breast = system: T-47D breast
HCT-116 colon = system: HCT-116 colon
OVCAR-5 ovarian = system: OVCAR-5 ovarian
OVCAR-8 ovarian = system: OVCAR-8 ovarian
A498 renal = system: A498 renal
HS 578T breast = system: HS 578T breast
DU-145 prostate = system: DU-145 prostate
ACHN renal = system: ACHN renal
HOP-92 NSCLC = system: HOP-92 NSCLC
IGROV1 ovarian = system: IGROV1 ovarian
M14 melanoma = system: M14 melanoma
CCRF-CEM leukemia = system: CCRF-CEM leukemia

SMILES: CN(C)c1ccc(-c2c(NC(C)(C)C)nc3c(OCCc4ccccc4)cccn23)cc1
- GI50 (HCT-15 colon): 3.3 µM
- TGI (HCT-15 colon): 24 µM
- GI50 (HOP-62 NSCLC): 3.4 µM
- TGI (HOP-62 NSCLC): 16.9 µM
- GI50 (MALME-3M melanoma): 2.3 µM
- TGI (MALME-3M melanoma): 5.95 µM
- GI50 (SF-539 CNS): 4.16 µM
- TGI (SF-539 CNS): 19.2 µM
- GI50 (SK-MEL-5 melanoma): 1.83 µM
- TGI (SK-MEL-5 melanoma): 3.37 µM
- GI50 (UACC-257 melanoma): 2.78 µM
- TGI (UACC-257 melanoma): 8.19 µM
- GI50 (HCC-2998 colon): 3.55 µM
- TGI (HCC-2998 colon): > 100 µM
- GI50 (SN12C renal): 2.93 µM
- TGI (SN12C renal): > 100 µM
- GI50 (A549 NSCLC): 3.58 µM
- TGI (A549 NSCLC): > 100 µM
- GI50 (UACC-62 melanoma): 3.53 µM
- TGI (UACC-62 melanoma): 52.1 µM
- GI50 (HL-60(TB) leukemia): 3.13 µM
- TGI (HL-60(TB) leukemia): 8.38 µM
- GI50 (SK-MEL-2 melanoma): 2.31 µM
- TGI (SK-MEL-2 melanoma): 4.99 µM
- GI50 (RXF 393 renal): 1.94 µM
- TGI (RXF 393 renal): 5.66 µM
- GI50 (MCF7 breast): 2.87 µM
- TGI (MCF7 breast): 9.82 µM
- GI50 (HT29 colon): 2 µM
- TGI (HT29 colon): 5.67 µM
- GI50 (CAKI-1 renal): 2.95 µM
- TGI (CAKI-1 renal): 10.5 µM
- GI50 (KM12 colon): 3.3 µM
- TGI (KM12 colon): 16.1 µM
- GI50 (786-0 renal): 3.57 µM
- TGI (786-0 renal): 15.5 µM
- GI50 (SNB-19 CNS): 3.43 µM
- TGI (SNB-19 CNS): 15.6 µM
- GI50 (COLO 205 colon): 2.2 µM
- TGI (COLO 205 colon): 5.24 µM
- GI50 (UO-31 renal): 2.01 µM
- TGI (UO-31 renal): 7.22 µM
- GI50 (BT-549 breast): 2.98 µM
- TGI (BT-549 breast): 8.45 µM
- GI50 (EKVX NSCLC): 2.89 µM
- TGI (EKVX NSCLC): 9.64 µM
- GI50 (NCI-H226 lung): 2.72 µM
- TGI (NCI-H226 lung): 8.86 µM
- GI50 (K-562 leukemia): 3.33 µM
- TGI (K-562 leukemia): 39.3 µM
- GI50 (RPMI-8226 leukemia): 2.53 µM
- TGI (RPMI-8226 leukemia): 6.74 µM
- GI50 (SK-MEL-28 melanoma): 3.85 µM
- TGI (SK-MEL-28 melanoma): > 100 µM
- GI50 (SK-OV-3 ovarian): 3.08 µM
- TGI (SK-OV-3 ovarian): 35.8 µM
- GI50 (TK-10 renal): 2.34 µM
- TGI (TK-10 renal): 6.8 µM
- GI50 (LOX IMVI melanoma): 3 µM
- TGI (LOX IMVI melanoma): 20.7 µM
- GI50 (NCI-H460 lung): 2.99 µM
- TGI (NCI-H460 lung): 9.66 µM
- GI50 (SNB-75 CNS): 1.79 µM
- TGI (SNB-75 CNS): 8.55 µM
- GI50 (OVCAR-4 ovarian): 3.06 µM
- TGI (OVCAR-4 ovarian): 12.8 µM
- GI50 (OVCAR-3 ovarian): 3.04 µM
- TGI (OVCAR-3 ovarian): 12.9 µM
- GI50 (NCI/ADR-RES ovarian): 3.09 µM
- TGI (NCI/ADR-RES ovarian): > 100 µM
- GI50 (PC-3 prostate): 3.09 µM
- TGI (PC-3 prostate): > 100 µM
- GI50 (SF-268 CNS): 3.53 µM
- TGI (SF-268 CNS): > 100 µM
- GI50 (NCI-H23 lung): 2.91 µM
- TGI (NCI-H23 lung): 10.9 µM
- GI50 (SR leukemia): 3.04 µM
- TGI (SR leukemia): 18.7 µM
- GI50 (MDA-MB-435): 3.16 µM
- TGI (MDA-MB-435): 18.1 µM
- GI50 (MOLT-4 leukemia): 3.46 µM
- TGI (MOLT-4 leukemia): 14 µM
- GI50 (U251 CNS): 3.24 µM
- TGI (U251 CNS): 11.4 µM
- GI50 (SF-295 CNS): 2.84 µM
- TGI (SF-295 CNS): 8.7 µM
- GI50 (MDA-MB-231 breast): 2.71 µM
- TGI (MDA-MB-231 breast): 7.87 µM
- GI50 (NCI-H522 lung): 2.59 µM
- TGI (NCI-H522 lung): 6.65 µM
- GI50 (SW-620 colon): 2.94 µM
- TGI (SW-620 colon): 22.1 µM
- GI50 (T-47D breast): 3.43 µM
- TGI (T-47D breast): > 100 µM
- GI50 (HCT-116 colon): 3.23 µM
- TGI (HCT-116 colon): 20.8 µM
- GI50 (OVCAR-5 ovarian): 3.22 µM
- TGI (OVCAR-5 ovarian): > 100 µM
- GI50 (OVCAR-8 ovarian): 3.04 µM
- TGI (OVCAR-8 ovarian): > 100 µM
- GI50 (A498 renal): 2.52 µM
- TGI (A498 renal): 7.83 µM
- GI50 (HS 578T breast): 2.62 µM
- TGI (HS 578T breast): 9.02 µM
- GI50 (DU-145 prostate): 4.16 µM
- TGI (DU-145 prostate): > 100 µM
- GI50 (ACHN renal): 3.24 µM
- TGI (ACHN renal): > 100 µM
- GI50 (HOP-92 NSCLC): 2.09 µM
- TGI (HOP-92 NSCLC): 6.15 µM
- GI50 (IGROV1 ovarian): 4.3 µM
- TGI (IGROV1 ovarian): > 100 µM
- GI50 (M14 melanoma): 3.48 µM
- TGI (M14 melanoma): 75.6 µM
- GI50 (CCRF-CEM leukemia): 3.29 µM
- TGI (CCRF-CEM leukemia): > 100 µM
